Assay results: US12661384B2, “Methods for inducing cell division of postmitotic cells” (priority 2015, dated 2026)

Test system: Human embryonic stem cell-derived cardiomyocytes
Assay: Screen of factor cocktails: PHH3 staining and total nuclei
Format: cell-based
Description: To determine an optimal cocktail of factors for inducing cell proliferation and/or cell cycle reentry of human postmitotic cardiomyocytes, combinations of factors were screened. […] Cells were treated with combinations of CDK1AF, CDK4, CCNB1, CCND1, AURKB or GFP control adenovirus, with or without combinations of TGF-βi (SB431542, “SB”), a […] (MK1775, “MK”), and IGF1. Analysis was performed to identify cocktails of factors that increased the number of cells undergoing mitosis as assessed by increased phospho-histone H3 staining at 4-, 8-, and 12-days after treatment with factor cocktails. FIG. 10, panel A. Analysis was also performed to identify which cocktails of factors had the highest cell survival as assessed by the increase in total number of nuclei. FIG. 10, panel B.

Compound	cell survival (total number of nuclei) (4, 8 and 12 days after treatment)	replacement of factors in the cocktail (activation of CDK1 with small molecule)
NC(=O)c1ccc(-c2nc(-c3ccc4c(c3)OCO4)c(-c3ccccn3)[nH]2)cc1 [SB431542]	enhanced survival	–
C=CCn1c(=O)c2cnc(Nc3ccc(N4CCN(C)CC4)cc3)nc2n1-c1cccc(C(C)(C)O)n1 [MK1775]	–	could replace CDK1 and CCNB1 from the cocktail
